Data reported in ChEMBL document CHEMBL1147698, “Design of a potent, soluble glucokinase activator with excellent in vivo efficacy” (Bioorg Med Chem Lett, 2006).
≈ marks a conversion by molar mass, not a printed value.

Legend:
[1] = Clearance in rat; type: ADME, organism-based; conditions: in vivo
[2] = Intrinsic clearance in rat per 10^6 cells; type: ADME
[3] = organism: Rattus norvegicus; test: Unbound clearance in rat; type: ADME, organism-based; conditions: in vivo
[4] = Percent of unbound ligand in rat plasma; type: ADME, organism-based
[5] = organism: Rattus norvegicus; test: Decrease in glucose level in Zucker rat by oral glucose tolerance test; type: ADME, organism-based; conditions: in vivo
[6] = Intrinsic clearance in dog per 10^6 cells; type: ADME, Canis lupus familiaris; conditions: not recorded
[7] = Bioavailability in rat; type: ADME, organism-based; conditions: in vivo
[8] = Bioavailability in dog; type: ADME, organism-based, Canis lupus familiaris; conditions: in vivo
[9] = Clearance in dog; type: ADME, organism-based, Canis lupus familiaris; conditions: in vivo
[10] = organism: Canis familiaris; test: Unbound clearance in dog; type: ADME, organism-based, Canis lupus familiaris; conditions: in vivo
[11] = Solubility of the compound; type: physicochemical
[12] = biological target: T1, Hexokinase-4 (Homo sapiens, UniProt P35557)
T1 sequence (P35557 whole entry): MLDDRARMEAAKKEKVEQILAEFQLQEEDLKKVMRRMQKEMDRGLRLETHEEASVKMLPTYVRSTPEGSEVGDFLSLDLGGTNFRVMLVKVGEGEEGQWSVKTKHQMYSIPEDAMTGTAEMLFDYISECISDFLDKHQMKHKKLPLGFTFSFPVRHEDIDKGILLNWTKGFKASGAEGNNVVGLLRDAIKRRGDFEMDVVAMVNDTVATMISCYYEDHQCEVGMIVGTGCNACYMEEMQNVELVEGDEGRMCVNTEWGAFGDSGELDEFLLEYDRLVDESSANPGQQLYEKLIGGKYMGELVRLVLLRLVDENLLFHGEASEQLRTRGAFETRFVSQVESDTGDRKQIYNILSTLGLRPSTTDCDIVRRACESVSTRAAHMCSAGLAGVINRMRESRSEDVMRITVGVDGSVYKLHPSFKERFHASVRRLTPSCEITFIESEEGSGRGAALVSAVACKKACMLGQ
Description: Activation of glucokinase

[13] = system: Rattus norvegicus; test: Decrease in glucose level in Zucker rat at 3 mg/kg, po by oral glucose tolerance test; type: ADME, organism-based; set-up: dose 3 mg/kg, route oral; conditions: in vivo
[14] = system: Rattus norvegicus; test: Decrease in glucose level in Zucker rat at 1 mg/kg, po by oral glucose tolerance test; type: ADME, organism-based; set-up: dose 1 mg/kg, route oral; conditions: in vivo
[15] = organism: Rattus norvegicus; test: Hepatic blood flow in rat; type: ADME, organism-based, Liver
[16] = Percent of unbound ligand in dog plasma; type: ADME, organism-based, Canis lupus familiaris
[17] = organism: Canis familiaris; test: Clearance in dog measured as percent of hepatic blood flow; type: ADME, organism-based, Canis lupus familiaris, Liver; conditions: in vivo
[18] = organism: Canis familiaris; test: Hepatic blood flow in dog; type: ADME, organism-based, Canis lupus familiaris, Liver
[19] = organism: Rattus norvegicus; test: Clearance in rat measured as percent of hepatic blood flow; type: ADME, organism-based, Liver; conditions: in vivo

| hepatocyte CLint [2] [µL/min/1e6 cells] | Structure (SMILES) | CL/F [3] [mL/min/kg] | fraction unbound [4] | bioavailability [7] [%] | solubility [11] [µM] | EC50 [12] [nM] | other results |
| --- | --- | --- | --- | --- | --- | --- | --- |
| < 1 | CC(C)Oc1cc(OCc2ccccc2)cc(C(=O)Nc2ccc(C(=O)O)cn2)c1 | 1850 | 0.002 | – | – | – | clearance [1]: 3.7 mL/min/kg |
| – | COC[C@H](C)Oc1cc(O[C@@H](C)Cc2ccccc2)cc(C(=O)Nc2ccc(C(=O)O)cn2)c1 | 475 | – | 99 | 1350 (≈ 627 µg/mL) | – | Activity [5]: Dose-dependent effect; hepatocyte CLint [6]: < 1 µL/min/1e6 cells; bioavailability [8]: 100%; clearance [9]: 4.4 mL/min/kg; CL/F [10]: 301 mL/min/kg |
| – | CC(C)Oc1cc(O[C@@H](C)Cc2ccccc2)cc(C(=O)Nc2ccc(C(=O)O)cn2)c1 | 1435 | – | 85 | 8 (≈ 3.48 µg/mL) | 20 | Activity [13]: Active |
| – | COC[C@@H](C)Oc1cc(OC(C)C)cc(C(=O)Nc2ccc(C(=O)O)cn2)c1 | – | 0.0622 | – | – | 5510 | – |
| – | CC(C)Oc1cc(O[C@H](C)c2ccccc2)cc(C(=O)Nc2ccc(C(=O)O)cn2)c1 | – | 0.0048 | – | – | 950 | – |
| – | COC[C@H](C)Oc1cc(OC(C)C)cc(C(=O)Nc2ccc(C(=O)O)cn2)c1 | 43 | 0.0534 | 100 | > 3140 | 610 | clearance [1]: 2.3 mL/min/kg; Activity [14]: Active |
| < 1 | CC(C)Oc1cc(OCCc2ccsc2)cc(C(=O)Nc2ccc(C(=O)O)cn2)c1 | 1461 | 0.0026 | – | – | – | hepatocyte CLint [6]: < 1 µL/min/1e6 cells; Activity [15]: 72 mL/min/kg; clearance [9]: 8.7 mL/min/kg; CL/F [10]: 1359 mL/min/kg; fraction unbound [16]: 0.0064; %LBF [17]: 28%; Activity [18]: 31 mL/min/kg; %LBF [19]: 5.3% |
| – | CC(C)Oc1cc(O[C@H](C)Cc2ccccc2)cc(C(=O)Nc2ccc(C(=O)O)cn2)c1 | – | 0.0023 | – | – | 90 | – |

| Structure (SMILES) | hepatocyte CLint [2] [µL/min/1e6 cells] | CL/F [3] [mL/min/kg] | fraction unbound [4] | bioavailability [7] [%] | solubility [11] [µM] | EC50 [12] [nM] | other results |
| --- | --- | --- | --- | --- | --- | --- | --- |
| CC(C)Oc1cc(O[C@@H](C)c2ccccc2)cc(C(=O)Nc2ccc(C(=O)O)cn2)c1 | < 1 | 171 | – | – | – | 110 | – |
